{"source": "patent US20130123201A1", "about": "“MODULATION OF CYTOKINE-INDUCED CHRONIC INFLAMMATORY RESPONSES” (UNIVERSITY OF MANITOBA, priority 2010, published 2013)", "assay_type_in_all_cases": "cell-based", "key": {"[1]": {"tested_on": "Human macrophage-like THP-1 cells", "test": "ELISA of cytokine/chemokine production in THP-1 tissue culture supernatants", "experimental": "ELISA immunoassay: Tissue culture supernatants were centrifuged at 1500× g for 5-7 min to obtain cell-free samples and the aliquots were stored at −20° C. until further use. Production of chemokine Gro-α was monitored in the tissue culture supernatants by ELISA employing human Gro-α DuoSet (R&D Systems Inc.) as per the manufacturer's instructions. Production of cytokine TNF-α was monitored in the tissue culture supernatants using specific antibody pairs from eBioscience, Inc., and production of IL-8 was monitored using specific antibody pairs from R&D Systems, Inc., as per the manufacturer's instructions. The concentration of the cytokines or chemokines in the tissue culture supernatants was evaluated by establishing a standard curve with serial dilutions of the recombinant human cytokines or chemokines as required.\nELISA immunoassay: Tissue culture supernatants were centrifuged at 1500× g for 5-7 min to obtain cell-free samples and the aliquots were stored at −20° C. until further use. Production of chemokine Gro-α was monitored in the tissue culture supernatants by ELISA employing human Gro-α DuoSet (R&D Systems Inc.) per the manufacturer's instructions. Production of cytokine TNF-α was monitored in the tissue culture supernatants using specific antibody pairs from eBioscience, Inc., and production of IL-8 was monitored using specific antibody pairs from R&D Systems, Inc., per the manufacturers' instructions. The concentrations of the cytokines or chemokines in the tissue culture supernatants were evaluated by establishing a standard curve with serial dilutions of the recombinant human cytokines or chemokines as required.\nImpact of cationic peptide LL-37 and its synthetic derivatives on IL-32-induced protein production: Human macrophage-like THP-1 cells were stimulated with IL-32 (20 ng/mL) in the presence and absence of cationic peptide LL-37, tissues culture supernatants were monitored for the production of pro-inflammatory cytokines TNF-α and IL-1β, and chemokines after 24 hr of stimulation. […] As LL-37 suppressed IL-32-mediated pro-inflammatory responses, we also evaluated the impact of LL-37 derived synthetic peptides. […] No studies to data have explored the impact of these peptides in the context of chronic inflammation. […] This provides the data that supports further investigation of these peptide candidates as potential therapeutics for diseases characterized by chronic inflammation."}, "[2]": {"tested_on": "Human fibroblast-like synovial (FLS) cells", "test": "qRT-PCR of cytokine-induced gene expression in FLS cells", "conditions": "some of the responses", "experimental": "Cell culture and isolation: Human fibroblast-like synovial (FLS) cells were isolated from synovial tissues obtained from patients […]. Briefly, the tissues were digested with 1 mg/ml collagenase and 0.05 mg/ml hyaluronidase (both obtained from Sigma; Oakville, ON, Canada) in Hanks' balanced salt solution (Gibco) for 1-2 hours at 37° C. The cells were cultured in DMEM media (Gibco) supplemented with sodium pyruvate and non-essential amino acids (referred to as complete DMEM media henceforth), containing […] in a humidified incubator at 37° C. and 10% CO2. […] Cellular cytotoxicity was evaluated after 24 hr stimulation with the various stimulants used in this study by monitoring the release of lactate dehydrogenase (LDH) employing a colorimetric detection kit (Roche Diagnostics, Laval, QC, Canada).\nQuantitative real-time PCR (qRT-PCR): Human FLS or monocytic THP-1 cells were stimulated with indicated stimulants for 4 hr. RNA was isolated and analyzed for gene expression by qRT-PCR using SuperScript III Platinum Two-Step qRT-PCR Kit with SYBR Green (Invitrogen), according to the manufacturer's instructions, in the ABI PRISM 7000 sequence detection system (Applied Biosystems). Fold changes were calculated using the comparative Ct method, after normalization using 18S rRNA primers. […]"}, "human PBMC": {"tested_on": "human PBMC", "test": "ELISA of IL-32-induced TNF-α and IL-1β production in PBMC (ex-vivo)", "text": "In order to confirm these activities in a physiologically relevant system, we evaluated the impact of the peptide in an ex-vivo assay using human PBMC, because cells recruited from the circulation are a major component of inflammatory infiltrates. Venous blood was collected from healthy volunteers with informed consent in accordance to a protocol approved by the Institutional Review Board at the University of Manitoba. PBMC was isolated from blood following the teaching of Mookherjee et al. (2009, Systems biology evaluation of immune responses induced by human host defence peptide LL-37 in mononuclear cells. Mol. Biosyst. 5:483-496). PBMC were stimulated with chronic inflammatory cytokine IL-32 (20 ng/ml) in the presence and absence of 5 μM of peptides, LL-37 and its derivatives (Table 7) for 24 hr. The tissue culture supernatants were monitored for the production of pro-inflammatory cytokines TNF-α and IL-1β by ELISA. […] Results shown are an average of four independent biological experiments performed with cells isolated from blood of four different donors ±standard error."}, "[3]": {"tested_on": "Human macrophage-like THP-1 cells", "test": "ELISA of cytokine/chemokine production in THP-1 tissue culture supernatants", "conditions": "both monocytic THP-1 and human FLS cells, data not shown"}, "[4]": {"tested_on": "Human macrophage-like THP-1 cells", "test": "qRT-PCR of cytokine-induced gene expression in THP-1 cells", "experimental": "(§1) Quantitative real-time PCR (qRT-PCR): Human FLS or monocytic THP-1 cells were stimulated with indicated stimulants for 4 hr. RNA was isolated and analyzed for gene expression by qRT-PCR using SuperScript III Platinum Two-Step qRT-PCR Kit with SYBR Green (Invitrogen), according to the manufacturer's instructions, in the ABI PRISM 7000 sequence detection system (Applied Biosystems). Fold changes were calculated using the comparative Ct method, after normalization using 18S rRNA primers.\nas §1, with “macrophage-like” for “monocytic”"}, "[5]": {"conditions": "macrophage-like THP-1 cells, IL-32 20 ng/mL, 24 hr"}, "[6]": {"conditions": "THP-1 cells, in the presence of the peptide"}, "[7]": {"conditions": "THP-1 cells, in the presence of the peptide, p<0.01"}}, "data": [{"substance": "LL-37: Human cathelicidin cationic host defence peptide, SEQ ID NO: 21, LLGDFFRKSKEKIGKEFKRIVQRIKDFLRNLVPRTES", "values": [{"measurement": "Suppression of IL-32-induced TNF-α production", "setting": "[1]; THP-1 monocytic cells, ELISA after 24 or 48 hr", "result": "> 30", "unit": "%"}, {"measurement": "Suppression of IL-32-induced chemokine Gro-α production", "setting": "[1]; THP-1 monocytic cells, ELISA after 24 or 48 hr, p<0.05", "result": "12±4", "unit": "%"}, {"measurement": "Effect on IL-32-induced IL-1β production", "setting": "[1]; [5]", "result": "significantly suppressed"}, {"measurement": "Effect on IL-32-induced TNF-α production", "setting": "[1]; [5]", "result": "significantly suppressed"}, {"measurement": "Effect on IL-32-induced chemokine production (IL-8, GROα)", "setting": "[1]; [5]", "result": "not altered"}, {"measurement": "Effect on IL-17-induced transcriptional responses", "setting": "[2]", "result": "significantly enhanced"}, {"measurement": "Effect on IL-32-induced IL-1β production", "setting": "human PBMC; human PBMC, IL-32 20 ng/ml, 5 μM peptide, 24 hr", "result": "neutralized"}, {"measurement": "Effect on IL-32-induced TNF-α production", "setting": "human PBMC; human PBMC, IL-32 20 ng/ml, 5 μM peptide, 24 hr, p<0.05", "result": "neutralized"}, {"measurement": "Effect on IL-32 induced pro-inflammatory protein production (FIG. 21 legend)", "setting": "human PBMC; peripheral blood mononuclear cells", "result": "suppression"}, {"measurement": "Effect on IL-17-induced chemokine production", "setting": "[3]", "result": "not significantly altered (or modestly enhanced)"}, {"measurement": "Suppression of IL-32-induced IL-8 (CXCL8) expression", "setting": "[4]; [6]", "result": "30-40%"}, {"measurement": "Suppression of IL-32-induced IL-23 expression", "setting": "[4]; [6]", "result": "30-40%"}, {"measurement": "Suppression of IL-32-induced NF-κB1A expression", "setting": "[4]; [6]", "result": "30-40%"}, {"measurement": "Suppression of IL-32-induced Gro-α (CXCL1) gene expression", "setting": "[4]; [7]", "result": "> 50", "unit": "%"}, {"measurement": "Suppression of IL-32-induced IL-6 gene expression", "setting": "[4]; [7]", "result": "> 50", "unit": "%"}, {"measurement": "Suppression of IL-32-induced TNF-α gene expression", "setting": "[4]; [7]", "result": "> 50", "unit": "%"}, {"measurement": "Effect on IL-17-induced expression of pro-inflammatory genes or chemokine genes", "setting": "[4]; human monocytic cells / macrophages, data not shown", "result": "not altered"}]}]}
